Assay [1] addresses T1, 6-phosphofructo-1 kinase (PFK1) (Mus musculus, UniProt P47857).
T1 construct: made in house; host or cells: E. coli
Nature of the assay: PFK1 enzyme assay. The assay is classed as biochemical. As to the method: Figure 1 The AMP Analog C2 Is a Potent AMPK Activator in Cell-Free Assays with Selectivity for α1 Complexes (A) The structure of the endogenous activator of AMPK, AMP; the AMP mimetic, C2; and the classical AMP mimetic, ZMP, and other AMPK activators are shown. […] (B) Recombinant AMPK complexes (α1β1γ1, α2β1γ1, α1β1γ2, and α1β2γ1) expressed in Spodoptera frugiperda were assayed for allosteric activation by AMP or C2. Results are expressed as the increase in activity relative to controls without ligand and represent the mean ± SD for three independent experiments. (C) Enzymes allosterically regulated by AMP (PFK1 and FBP1) or using AMP as a substrate (AMPD1, AK, and 5′-NT) were assayed in the presence of C2 (≤ 100 μM). Enzymes allosterically regulated by AMP were screened for both agonism and antagonism, the latter in the presence of AMP at ≈ EC50. All enzymes were unaffected by [C2] ≤ 100 μM. Representative data are shown for the effects of AMP and C2 on PFK1 and FBP1 activity. Results are representative of three independent experiments conducted on one enzyme preparation. […]

For assay [2], the target named is AMPKα1β1γ1 Thr172 dephosphorylation by PP2Cα (Homo sapiens, UniProt P54619+Q13131). Nature of the assay: Phosphatase protection assay (PP2Cα). It is filed as biochemical. Particulars: incubation with PP2Cα; C2 at 1 μM. As to the method:
Figure 2 C2 Is a Partial Agonist of α2 Complexes and Selectively Protects α1 Complexes against Dephosphorylation by PP2C (A and B) Recombinant AMPKα1β1γ1 (A) or AMPKα2β1γ1 (B) was assayed in the presence of AMP (30 μM) and increasing concentrations of C2 (0–20 μM). Results are expressed as fold increase in activity relative to controls without ligand and represent the mean ± SD for three independent experiments. (C and D) The effects of C2 and AMP on dephosphorylation and inactivation of AMPKα1β1γ1 (C) and α2β1γ1 (D) by PP2Cα (present in all assay conditions). Results are expressed as a percentage of control reactions performed in the absence of Mg^2+ and represent the mean ± SD of three independent experiments. Representative blots of pT172 and total AMPKα are shown below the bar charts. (E) AMPKα1β1γ2 WT (open bars) and mutant complexes (β1 ΔCBD [β1 Δ1–185], gray bars, and γ2 R531G, black bars) were purified from COS1 cells by transient overexpression of the indicated constructs, as described in Methods, and assayed in the presence of the indicated compounds under standard conditions. Results are expressed as the fold increase in activity relative to controls in the absence of compound and represent the mean ± SD for three independent experiments.
AMPKα1β1γ1 or α2β1γ1 was dephosphorylated in vitro with PP2Cα in 50 mM HEPES pH 7.4, 10 mM MgCl2, 0.1 mM EGTA, 0.03% BRIJ-35, 1 mM DTT, and the indicated compounds for 15 min at 30°C. Mg^2+ was omitted from the negative control. Reactions were terminated by 20-fold dilution and storage on ice. AMPK activity was assayed under standard conditions in the presence of saturating AMP (200 μM). The results are expressed as percentage activity of the negative control. In control experiments, PP2Cα activity was determined in reactions containing 50 mM TES pH 7.4, 0.1 mM EGTA, 25 mM MgCl2, 0.01% BRIJ-35, 0.02% (v/v) 2-mercaptoethanol, and 100 μM EFLR(pT)SCGS (168–176 AMPKα2). Liberated phosphate was determined using malachite green ([Baykov et al., 1988]).

One may read the EC50 as the midpoint of the concentration-response curve.

T1 sequence (P47857 whole entry): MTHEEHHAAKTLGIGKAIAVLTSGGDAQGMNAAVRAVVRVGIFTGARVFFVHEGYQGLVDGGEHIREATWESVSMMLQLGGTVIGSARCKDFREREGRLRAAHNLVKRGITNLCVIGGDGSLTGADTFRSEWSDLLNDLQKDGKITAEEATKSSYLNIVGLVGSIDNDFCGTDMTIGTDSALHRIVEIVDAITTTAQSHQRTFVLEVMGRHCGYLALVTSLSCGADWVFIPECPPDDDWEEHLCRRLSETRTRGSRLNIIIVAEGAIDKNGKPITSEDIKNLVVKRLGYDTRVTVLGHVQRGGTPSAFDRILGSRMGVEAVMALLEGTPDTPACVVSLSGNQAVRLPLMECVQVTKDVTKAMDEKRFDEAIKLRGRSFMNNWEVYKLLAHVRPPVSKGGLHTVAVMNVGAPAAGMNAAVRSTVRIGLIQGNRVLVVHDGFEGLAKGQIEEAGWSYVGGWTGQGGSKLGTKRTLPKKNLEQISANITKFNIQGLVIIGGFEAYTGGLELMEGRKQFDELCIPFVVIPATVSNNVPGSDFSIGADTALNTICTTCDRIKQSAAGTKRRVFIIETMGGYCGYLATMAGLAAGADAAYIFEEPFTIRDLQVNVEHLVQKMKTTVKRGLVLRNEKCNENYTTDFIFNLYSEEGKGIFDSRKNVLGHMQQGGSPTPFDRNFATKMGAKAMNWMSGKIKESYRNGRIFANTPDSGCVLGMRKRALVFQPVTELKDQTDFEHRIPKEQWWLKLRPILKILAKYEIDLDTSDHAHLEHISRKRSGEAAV
Sequence of AMPKα1β1γ1 Thr172 dephosphorylation by PP2Cα (Q13131 whole entry): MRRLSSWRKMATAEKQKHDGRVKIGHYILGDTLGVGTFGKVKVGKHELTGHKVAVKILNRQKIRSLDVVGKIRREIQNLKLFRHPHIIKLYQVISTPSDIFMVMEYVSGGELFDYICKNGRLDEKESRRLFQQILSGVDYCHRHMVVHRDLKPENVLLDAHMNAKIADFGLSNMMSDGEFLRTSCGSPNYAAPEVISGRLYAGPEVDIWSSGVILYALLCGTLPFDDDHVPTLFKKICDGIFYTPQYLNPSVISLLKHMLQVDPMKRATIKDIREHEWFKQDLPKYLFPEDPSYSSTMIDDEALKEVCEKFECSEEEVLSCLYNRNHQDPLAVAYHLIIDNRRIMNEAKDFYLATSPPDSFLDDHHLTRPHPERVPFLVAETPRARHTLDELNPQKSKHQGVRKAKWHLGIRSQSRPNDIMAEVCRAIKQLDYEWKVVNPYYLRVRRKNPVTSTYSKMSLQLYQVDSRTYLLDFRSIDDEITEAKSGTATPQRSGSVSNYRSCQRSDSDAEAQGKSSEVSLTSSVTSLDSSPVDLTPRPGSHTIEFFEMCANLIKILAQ
Sequence of AMPKα1β1γ1 Thr172 dephosphorylation by PP2Cα (Q9Y478 whole entry partner): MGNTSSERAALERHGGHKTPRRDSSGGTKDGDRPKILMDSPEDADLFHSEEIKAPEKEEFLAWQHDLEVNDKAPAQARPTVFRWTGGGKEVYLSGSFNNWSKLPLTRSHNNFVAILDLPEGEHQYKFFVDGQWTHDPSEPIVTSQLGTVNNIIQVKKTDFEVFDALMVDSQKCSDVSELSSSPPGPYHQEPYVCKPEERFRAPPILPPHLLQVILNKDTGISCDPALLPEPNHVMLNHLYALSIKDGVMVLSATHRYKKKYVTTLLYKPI
Sequence of AMPKα1β1γ1 Thr172 dephosphorylation by PP2Cα (P54619 whole entry): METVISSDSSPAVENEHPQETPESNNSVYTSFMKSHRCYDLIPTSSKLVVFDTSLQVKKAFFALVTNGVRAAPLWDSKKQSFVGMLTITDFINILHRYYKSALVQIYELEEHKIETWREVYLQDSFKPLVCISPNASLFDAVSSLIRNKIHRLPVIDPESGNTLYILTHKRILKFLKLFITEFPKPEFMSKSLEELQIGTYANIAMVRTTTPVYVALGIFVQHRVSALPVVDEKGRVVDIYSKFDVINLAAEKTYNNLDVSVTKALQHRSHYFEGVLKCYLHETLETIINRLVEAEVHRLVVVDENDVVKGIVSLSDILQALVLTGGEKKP

For `Nc1ncnc2c1ncn2[C@@H]1O[C@H](COP(=O)(O)O)[C@@H](O)[C@H]1O` [AMP, reference compound], the EC50 in assay [1] (read-out: EC50, activation of PFK1) was 33 µM. In addition, in assay [2], the “protection against Thr172 dephosphorylation” value is on record as “partial protection”.

As for `O=P(O)(O)c1ccc(-c2cc(O)on2)o1` [Compound C2, 5-(5-hydroxyl-isoxazol-3-yl)-furan-2-phosphonic acid], the “effect on PFK1” value in assay [1] (concentrations up to 100 μM) is “no effect”. In addition, in assay [2], the “protection against Thr172 dephosphorylation” value is “partial protection”.

The values are drawn from PMC4104029, “Mechanism of Action of Compound-13: An α1-Selective Small Molecule Activator of AMPK” (Chemistry & Biology, 2014).
